Reference: patent EP2601945A1 (Thomale, Jürgen, priority 2011, dated 2013)
Entries after “also recorded” stand apart in the source; their conditions may differ.

Legend:
[1] = tested on: human cancer cell lines established from tumors (lung, bladder, testis); assay: Co-application of cis-platin and DPH to cancer cell lines: apoptosis by Annexin V staining and FACS analysis; type: cell-based; details: cis-platin alone or in combination with DPH
hearing capability = assay: BAER hearing test after repetitive cis-platin with or without DPH, or DPH alone
Description: Both groups received additional i.p. injections with saline solution (500 µl) in order to protect the mice from kidney injury. […] Like in the clinical BAER tests for humans, the hearing threshold was determined as the disappearance of wave V. This value was converted into percentage of hearing capability as compared to the untreated controls (dB to %). […] The mean value of the untreated mice was set as 100 %.

[2] = tested on: K-rasG12D -induced lung tumors; assay: Tumor growth in the K-ras mouse model of NSCLC (H&E lung sections, Bioquant image analysis); type: in vivo, mice; details: for tumor number: not statistically significant
Source text: (§1) Oncogenic mutations in the gene encoding the small GTPase K-ras are among the most frequently detected alterations in human lung cancer and approximately 30 % of all cases of human non-small cell lung cancer (NSCLC) carry such an activated K-ras allele with mutations predominantly located in codons 12, 13 or 61. Based on this observation a mouse model for NSCLC was recently established (Sweet-Cordero et al., 2004). The local activation of a silent transgenic K-rasG12D allele in these mice is achieved by intratracheal adenoviral transfection with the Cre recombinase (AdCre). The Cre recombinase cuts out a "stop" cassette and allows for expression of the oncogenic K-ras protein in transfected lung cells.
A cohort of tumor-bearing mice was randomly divided into three subgroups receiving different treatment regimens. Group one (mock treatment control) received i.p. injections once per week with PBS for 4 weeks. […] Mice were sacrificed 5 days after the last dose; lungs were dissected and prepared for paraffin sections. Following H&E staining for morphological structures, the percentage tumor burden, the number of tumors per lung and the average tumor size was determined microscopically (Figure 13 B-D, 14). […] For quantitative analysis the Bioquant image analysis software was used to blindly and randomly quantify the area of all lung tumors and the total lung surface area in 4 lung sections per mouse.

[3] = tested on: Pt-GG adducts in DNA of lung tumor cells; assay: ICA of Pt-GG adducts in primary lung tumor cells; type: in vivo, mice
Source text: as §1, with “cells. When the initiation is performed at the age of 8 weeks, mice are diagnosed 16 weeks later with lung tumors at 100 % penetrance. The morphology and molecular characteristics of the tumors are very similar to human NSCLC and they respond with regression to chemotherapy with cis-platin.” for “cells.”
Mice bearing K-rasG12D -induced lung tumors were divided into two groups for acute high dose and for chronic low dose treatment. Animals received mocktreatment with PBS or cis-platin alone or cis-platin plus treatment with DPH. […] All mice were sacrificed 24 hours after the last treatment and cochleae, kidneys and lungs were resected for analysis of DNA adduct accumulation.

[4] = tested on: outer hair cells and stria vascularis marginal cells; assay: Electron microscopy of cochlear cell micromorphology; type: in vivo, mice; details: four times
[5] = cis-platin 7 mg/kg once per week for 4 weeks, DPH 57 mg/kg
[6] = cis-platin in combination with DPH (57 mg/kg 30 minutes before each dose)
[7] = cis-platin alone (7 mg/kg once per week for 4 weeks)

Compound | effect on the induction of apoptosis [1] | hearing ability throughout the experiment (hearing capability; DPH alone 57 mg/kg repetitively, no cis-platin) | hearing sensitivity 24 hours later (hearing capability; DPH alone, single dose 57 mg/kg, BAER repeated 24 hours later) | hearing loss (hearing capability; cis-platin cumulated dose 20 mg/kg in combination with DPH 57 mg/kg 30 minutes before each dose) | mean hearing capability, percentage of untreated controls (hearing capability; cis-platin cumulated dose 40 mg/kg plus DPH 57 mg/kg before each dose) | average tumor size, cis-platin alone versus cis-platin plus inhibitor group [2, 5] | mean tumor burden in the lung, cis-platin alone versus in combination with DPH [2, 5] | reduction of average tumor size [2, 6] | reduction of tumor burden [2, 6] | tumor number ([2]; cis-platin plus DPH versus PBS) | reduction of Pt-GG levels in lung tumor cells by DPH co-treatment ([3]; DPH 57 mg/kg 30 minutes prior to cis-platin, acute 10 mg/kg or chronic 4 x 5 mg/kg) | micromorphology of outer hair cells and marginal cells ([4]; DPH alone 57 mg/kg every second day) | micromorphology of outer hair cells and marginal cells ([4]; cis-platin 5 mg/kg plus DPH 57 mg/kg every second day) | hearing capability, percentage of controls (hearing capability; cis-platin alone 5 mg/kg every second day, cumulated dose 20 mg/kg, BAER 24 h after last treatment) | reduction of hearing capacity (BAER) (hearing capability; cis-platin treatment alone, mice (description)) | reduction of average tumor size [2, 7] | reduction of tumor burden [2, 7] | tumor number ([2]; cis-platin alone versus PBS) | adduct levels in lung tumor cells, repetitive treatment compared to single high dose treatment ([3]; cis-platin 4 x 5 mg/kg every second day versus 10 mg/kg once) | micromorphology of outer hair cells and marginal cells ([4]; cis-platin alone 5 mg/kg every second day)
CN(C)CCOC(c1ccccc1)c1ccccc1 [DPH, diphenhydramine] | no inhibitory effect | did not show any difference | regained their normal hearing sensitivity | 20% | about 70% | no difference | no significant difference | about 50% | about 80% | reduced | no reduction | No signs of autophagy or necrosis | much less frequent and properly shaped; also recorded: rare autophagosome-like structures | – | – | – | – | – | – | –
N.N.[Cl][Pt][Cl] [cis-platin, cis-diaminedichloro-platinum(II)] | – | – | – | – | – | – | – | – | – | – | – | – | – | about 50% | about 45% | about 50% | about 80% | reduced | about two-fold higher | necrotic cell death
